Literature values, collected in patent publication US20170158776A1, “TREATMENT OF LUNG CANCER USING A COMBINATION OF AN ANTI-PD-1 ANTIBODY AND ANOTHER ANTI-CANCER AGENT” (Bristol-Myers Squibb Company, priority 2014, published 2017).

Tested on: EGFR MT NSCLC
Details: first-line treatment of EGFR MT NSCLC; cited from earlier work

SMILES: C#Cc1cccc(Nc2ncnc3cc(OCCOC)c(OCCOC)cc23)c1 [erlotinib]
- median progression-free survival (PFS): 10.4 months
